From paper PMC7037732, “Synthesis of Combretastatin A-4 and 3′-Aminocombretastatin A-4 derivatives with Aminoacid Containing Pendants and Study of their Interaction with Tubulin and as Downregulators of the VEGF, hTERT and c-Myc Gene Expression” (Molecules, 2020)
Each block holds one compound with its values, some of them ahead of it.

Tests used:
A-549 cells = assay: Cell cycle distribution by flow cytometry; type: cell-based, human; conditions: for G0/G1 / G2/M / S / Effect on the cell cycle: A-549, 24 h; for Effect on the cell cycle: concentration per compound as in Tables 6 and 7
Method in brief: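 A-549 cells were harvested, fixed in cold 70% ethanol (30 min, −20 °C), then stained with 50 µg/mL propidium iodide plus 100 µg/mL RNase A in PBS for 20 min at room temperature in the dark. Flow cytometry used 488 nm excitation and 620 nm emission, giving the percentage of cells in G2/M.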

[1] = test system: HT-29 (human colon adenocarcinoma); assay: Inhibition of cell proliferation (MTT), HT-29; type: cell-based; conditions: 48 h of treatment (footnote), average ±SD of three experiments
hTERT gene = hTERT gene expression by RT-qPCR in HT-29 cells; type: cell-based, human
Procedure: The effect on the expression of VEGF, hTERT and c-Myc genes has been studied for CA-4 and its derivatives that show selectivity indexes higher than 0.9 on the HT-29 cell line. The studied derivatives, together with the concentrations to which they have been tested, are CA-4 (15 μM); 4.1 (Gly, 5 μM); 4.5 (L-Pro, 25 μM); 4.9 (L-Met, 25 μM); 6.2 (D-Leu, 25 μM); 6.3 (D-Phe, 25 μM); 6.4 (D-Pro, 25 μM) and 6.5 (D-Ser, 10 μM). The expression of the genes was determined by RT-qPCR methodology, as described in the Materials and Methods section.
As regards AmCA-4 derivatives, the effect on the expression of the VEGF, hTERT and c-Myc genes has been studied on those that show IC50 in the low nanomolar range on the HT-29 cell line and/or on compounds whose selectivity indexes with respect to this cell line are higher than 1. The studied compounds, together with the concentrations to which they have been tested, are: CA-4 (15 μM), AmCA-4 (15 nM), 7.1 (7 nM), 7.2 (1.5 nM), 7.3 (4 nM), 7.4 (15 nM), 7.5 (2 nM), 7.7 (7 nM), 7.8 (15 nM), 7.9 (30 nM), 8.1 (7 nM), 8.2 (3 nM), 8.3 (10 nM), 8.4 (1.5 nM), 8.5 (4 nM), 8.7 (7 nM), 8.8 (3 nM) and 8.9 (4 nM).
HT-29 cells at 70–80% confluence were collected, and 1.5 × 10^5 cells were placed in a six-well plate in 1.5 mL of the medium. After 24 h, cells were incubated with the corresponding compounds for 48 h. Cells were collected, and the total cellular RNA from the HT-29 cells was isolated using an Ambion RNA Extraction Kit, according to the manufacturer’s instructions. The cDNA was synthesized by MMLV-RT with […] of extracted RNA and oligo(dT)15, according to the manufacturer’s instructions. Genes were amplified by a thermal cycler and StepOnePlus™ TaqMan® probes. TaqMan® Gene Expression Master Mix Fast, containing the appropriate buffer for the amplification conditions, dNTPs, thermostable DNA polymerase enzyme and a passive reference probe, was used. To amplify each of the genes, the predesigned primers sold by Life Technologies TaqMan® Gene Expression Assays Hs99999903-m1 (β-actin), Hs00900055-m1 (VEGF), Hs00972646-m1 (hTERT) and Hs00153408-m1 (c-Myc) were used.

[2] = test system: HEK-293 (human embryonic kidney cells); assay: Inhibition of cell proliferation (MTT), nontumor HEK-293; type: cell-based; conditions: 48 h of treatment (footnote), average ±SD of three experiments
[3] = test system: MCF-7 (breast adenocarcinoma); assay: Inhibition of cell proliferation (MTT), MCF-7; type: cell-based, human; conditions: 48 h of treatment (footnote), average ±SD of three experiments
[4] = Homo sapiens, HT-29, 48 h, Table 2
[5] = Homo sapiens, HEK293, 48 h, Table 2
[6] = Homo sapiens, MCF7, 48 h, Table 2
[7] = Homo sapiens, HT-29, 48 h, 4 nM, control 100
[8] = Homo sapiens, HT-29, 48 h, Table 1
[9] = Homo sapiens, HEK293, 48 h, Table 1
[10] = Homo sapiens, MCF7, 48 h, Table 1

Compound: COc1ccc(/C=C\c2cc(OC)c(OC)c(OC)c2)cc1NC(=O)CNC(=O)OCC1c2ccccc2-c2ccccc21 [Compound 7.1]
G0/G1 (A-549 cells; 0.5 µM): 28 ± 1% | G2/M (A-549 cells; 0.5 µM): 54 ± 1% | S (A-549 cells; 0.5 µM): 18 ± 2% | IC50 [1, 4]: 7 ± 4 nM | mrna remaining at 0.007 µM (hTERT gene; Homo sapiens, HT-29, 48 h, 7 nM, control 100): < 70% | IC50 [2, 5]: 3.5 ± 1.9 nM | IC50 [3, 6]: 4.8 ± 0.5 nM

Compound: COc1ccc(/C=C\c2cc(OC)c(OC)c(OC)c2)cc1NC(=O)[C@@H](N)C(C)C [Compound 8.3]
G0/G1 (A-549 cells; 2 µM): 65 ± 2% | G2/M (A-549 cells; 2 µM): 15 ± 2% | S (A-549 cells; 2 µM): 20 ± 1% | Effect on the cell cycle (A-549 cells): do not accumulate a high percentage of cells in phase G2/M | IC50 [1, 4]: 13.3 ± 0.5 nM | mrna remaining at 0.01 µM (hTERT gene; Homo sapiens, HT-29, 48 h, 10 nM, control 100): < 70% | IC50 [2, 5]: 7.6 ± 0.3 nM | IC50 [3, 6]: 13 ± 2 nM

Compound: COc1ccc(/C=C\c2cc(OC)c(OC)c(OC)c2)cc1NC(=O)[C@@H](N)CCSC [Compound 8.9]
G0/G1 (A-549 cells; 0.2 µM): 30 ± 1% | G2/M (A-549 cells; 0.2 µM): 51 ± 2% | S (A-549 cells; 0.2 µM): 19 ± 1% | IC50 [1, 4]: < 5 nM | IC50 ([1]; Table 2): 4.9 ± 0.1 nM | mrna remaining at 0.004 µM (hTERT gene; [7]): 71% | IC50 [2, 5]: < 5 nM | IC50 ([2]; Table 2): 3.7 ± 0.3 nM | IC50 [3, 6]: < 5 nM | IC50 ([3]; Table 2): 3.4 ± 1.2 nM

Compound: COc1ccc(/C=C\c2cc(OC)c(OC)c(OC)c2)cc1N [AmCA-4, 3′-aminocombretastatin A-4]
G0/G1 (A-549 cells; 0.125 µM): 26 ± 1% | G2/M (A-549 cells; 0.125 µM): 59 ± 2% | S (A-549 cells; 0.125 µM): 15 ± 2% | IC50 [1, 4]: 22 ± 1 nM | mrna remaining at 0.015 µM (hTERT gene; Homo sapiens; HT-29, 48 h, 15 nM; control 100): 50% | IC50 [2, 5]: 7 ± 1 nM | IC50 [3, 6]: 8 ± 1 nM

Compound: COc1ccc(/C=C\c2cc(OC)c(OC)c(OC)c2)cc1OCC(=O)N[C@@H](CCSC)C(=O)O [Compound 4.9]
G0/G1 (A-549 cells; 75 μM): 76% | G2/M (A-549 cells; 75 μM): 13% | S (A-549 cells; 75 μM): 11% | Effect on the cell cycle (A-549 cells): do not exert any significant effect on the cells | IC50 [1, 8]: 32000 ± 6000 nM | downregulation of hTERT gene expression (hTERT gene; HT-29, 48 h; discussion; concentration per compound): more than 55% | mrna remaining at 25 µM (hTERT gene; Homo sapiens, HT-29, 48 h, 25 μM, control 100): 38% | IC50 [2, 9]: 40000 ± 4000 nM | IC50 [3, 10]: 13000 ± 2000 nM

Compound: COc1ccc(/C=C\c2cc(OC)c(OC)c(OC)c2)cc1OCC(=O)NCC(=O)O [Compound 4.1]
G0/G1 (A-549 cells; 75 μM): 68% | G2/M (A-549 cells; 75 μM): 20% | S (A-549 cells; 75 μM): 12% | Effect on the cell cycle (A-549 cells): do not exert any significant effect on the cells | IC50 [1, 8]: 5000 ± 1000 nM | mrna remaining at 5 µM (hTERT gene; Homo sapiens, HT-29, 48 h, 5 μM, control 100): 56% | IC50 [2, 9]: 5000 ± 1000 nM | IC50 [3, 10]: 6000 ± 1000 nM

Compound: COc1ccc(/C=C\c2cc(OC)c(OC)c(OC)c2)cc1O [CA-4, combretastatin A-4]
cells accumulated in the G2/M phase (A-549 cells; 24 h): 60% | G0/G1 (A-549 cells; 0.05 μM): 25 ± 1% | G2/M (A-549 cells; 0.05 μM): 60 ± 2% | S (A-549 cells; 0.05 μM): 15 ± 1% | IC50 ([1]; Homo sapiens, HT-29, Table 1): 4200 ± 500 nM | mrna remaining at 15 µM (hTERT gene; Homo sapiens; HT-29, 48 h, 15 μM; control (DMSO) 100; normalized to β-actin): 85% | IC50 ([2]; Homo sapiens, HEK293, Table 1): 25000 ± 3000 nM | IC50 ([3]; Homo sapiens, MCF7, Table 1): 1000 ± 200 nM

IC50 ([1]; Homo sapiens, HT-29, Table 1): 27000 ± 5000 nM | IC50 ([3]; Homo sapiens, MCF7, Table 1): 43000 ± 3000 nM
Compound: COc1ccc(/C=C\c2cc(OC)c(OC)c(OC)c2)cc1OCC(=O)N[C@H](Cc1ccccc1)C(=O)O [Compound 6.3]
G0/G1 (A-549 cells; 75 μM): 74 ± 3% | G2/M (A-549 cells; 75 μM): 14 ± 2% | S (A-549 cells; 75 μM): 11 ± 6% | Effect on the cell cycle (A-549 cells): do not exert any significant effect on the cells | mrna remaining at 25 µM (hTERT gene; Homo sapiens; HT-29, 48 h, 25 μM; control 100): 68% | IC50 ([2]; Homo sapiens, HEK293, Table 1): 46000 ± 6000 nM

Compound: COc1ccc(/C=C\c2cc(OC)c(OC)c(OC)c2)cc1NC(=O)[C@@H](N)Cc1ccccc1 [Compound 8.5]
G0/G1 (A-549 cells; 0.5 µM): 46 ± 2% | G2/M (A-549 cells; 0.5 µM): 26 ± 10% | S (A-549 cells; 0.5 µM): 28 ± 11% | IC50 [1, 4]: < 5 nM | IC50 ([1]; Table 2): 4.4 ± 2.5 nM | mrna remaining at 0.004 µM (hTERT gene; [7]): 98% | IC50 [2, 5]: < 5 nM | IC50 ([2]; Table 2): 3.5 ± 1.9 nM
